Results taken from US7655465B2, “Methods for ex vivo propagation of somatic hair follicle stem cells” (Massachusetts Institute of Technology, priority 2004, dated 2010).

Columns and labels:
[1] = test system: hair follicle epithelial cell cultures; assay: Limiting dilution cloning of hair follicle epithelial cells with and without purine supplementation; assay type: cell-based, mouse; conditions: for Cell clone efficiency, Cloning Condition Purine-supplemented (positive wells/total wells) / Cell clone efficiency, Cloning Condition Purine-free (positive wells/total wells): limiting dilution in 96 well plates; for Cell clone efficiency, Cloning Condition Purine-supplemented (positive wells/total wells): cloned in the presence of the purine used for initial outgrowth (400 uM); for Cell clone efficiency, Cloning Condition Purine-free (positive wells/total wells): cultures grown out with 400 uM purine, cloned without purine
Excerpt: After outgrowth of the follicle epithelial cells, cultures were trypsinized to harvest cells for secondary culture. […] In this manner, purine metabolite-dependent clonal expansion was verified. […] Seventeen Xn-derived clones were transferred to 24-well plates, and 15 survived expansion to full scale cultures for cryo-preservation.

[2] = test system: mouse whisker follicle epithelial cells; assay: Outgrowth and cell counts of purine-supplemented mouse whisker hair follicle cultures; assay type: cell-based; conditions: 400 uM purine
Excerpt: Intact mouse whisker hair follicles were dissected from the skin under sterile conditions. The hair shaft was resected at its point of exit from the follicle. The intact follicle was then digested with trypsin, repeatedly washed, and filtered with a nylon mesh to remove external cells that adhere to the follicle capsule. The follicle was then opened with a single longitudinal incision and place in culture medium supplemented with 10% dialyzed fetal bovine serum, epidermal growth factor, and one of three different purine nucleoside metabolites (Hypoxyanthine, xanthosine, or xanthine) each supplemented to 400 uM.
Confluent primary cultures were transferred into to 25-cm^2 flasks. Seven days after this transfer, cell counts were performed before transferring cultures to 75-cm^2 flasks.

[3] = test system: adult stem cell-enriched populations from skeletal muscle, pancreas or small intestinal epithelium of XPRT-transgenic mice; assay: Proliferation of adult stem cell-enriched populations explanted from XPRT-transgenic mice in xanthine-supplemented medium; assay type: cell-based, mouse; conditions: cells explanted from XPRT-transgenic mice
Excerpt: We have generated transgenic mice ubiquitously expressing the xanthine phosphoribosyltransferase (XPRT) gene. We used the gene encoding for XPRT from the protozoan Leismania donovani. The XPRT enzyme can convert Xanthine into xanthosine monophosphate, the critical precursor for cellular guanine nucleotides. This enzyme has no mammalian counterpart and its substrate can enter the cell via ubiquitously expressed nucleobase transporters. Therefore, we can control the kinetics of adult stem cells expressing XPRT by supplementing with or depriving the culture medium of xanthine. In the presence of xanthine, XPRT-expressing cells increase their cellular level of guanine nucleotides independently of their normal endogenous pathway involving the conversion of inosine monophosphate to xanthosine monophosphate by the enzyme inosine monophosphate dehydrogenase.
We have generated transgenic mice ubiquitously expressing the XPRT gene under the control of the chicken β-actin/CMV enhancer. […] We have also shown that the culture of pancreatic cells from one of the transgenic lines gives rise to clusters of small cells with large nuclei. This feature is typical of ductal cells, from which a subset is believed to correspond to the pancreatic adult stem cells. […]

| SMILES | Cell clone efficiency, Cloning Condition Purine-supplemented (positive wells/total wells) [1] | Cell clone efficiency, Cloning Condition Purine-free (positive wells/total wells) [1] | Promotion of enhanced growth of mouse whisker follicle epithelial cells (comparison of purines) [2] | Order of reaching confluency of primary cultures ([2]; three hair follicles in one well of a 24-well plate) | Yield of cell clones and dependence on the purine ([1]; limiting dilution cloning, summary of Table 1) | Proliferation in xanthine-supplemented culture medium [3] |
| --- | --- | --- | --- | --- | --- | --- |
| O=c1[nH]cnc2nc[nH]c12 [Hx, hypoxanthine] | 6/480 | 0/96 | – | – | – | – |
| O=c1[nH]c(=O)c2ncn([C@@H]3O[C@H](CO)[C@@H](O)[C@H]3O)c2[nH]1 [Xs, xanthosine] | 1/480 | 0/96 | – | – | – | – |
| O=c1[nH]c(=O)c2[nH]cnc2[nH]1 [Xn, xanthine] | 50/480 | 4/96 | worked the best | reached confluency first | significant number of cell clones with a marked dependence on Xn | enhanced proliferation |
